{"source": "ChEMBL document CHEMBL4699480", "about": "(J Med Chem, 2020)", "key": {"[1]": {"tested_on": "DLD-1", "experiment": "Cytotoxicity in human DLD-1 cells assessed as reduction in cell viability incubated for 72 hrs by MTT assay", "type": "functional, cell-based", "conditions": "DLD-1, 72 h"}, "[2]": {"experiment": "Synergistic cytotoxicity in human PD002 cells assessed as FIC at 0.2 uM incubated for 72 hrs in presence of 0.0049 uM paclitaxel by IncuCyte live cell analysis imaging system based assay", "type": "functional"}, "[3]": {"target": "T1, UDP-N-acetylglucosamine--dolichyl-phosphate N-acetylglucosaminephosphotransferase (Homo sapiens) (UniProt Q9H3H5)", "T1 sequence (whole entry)": "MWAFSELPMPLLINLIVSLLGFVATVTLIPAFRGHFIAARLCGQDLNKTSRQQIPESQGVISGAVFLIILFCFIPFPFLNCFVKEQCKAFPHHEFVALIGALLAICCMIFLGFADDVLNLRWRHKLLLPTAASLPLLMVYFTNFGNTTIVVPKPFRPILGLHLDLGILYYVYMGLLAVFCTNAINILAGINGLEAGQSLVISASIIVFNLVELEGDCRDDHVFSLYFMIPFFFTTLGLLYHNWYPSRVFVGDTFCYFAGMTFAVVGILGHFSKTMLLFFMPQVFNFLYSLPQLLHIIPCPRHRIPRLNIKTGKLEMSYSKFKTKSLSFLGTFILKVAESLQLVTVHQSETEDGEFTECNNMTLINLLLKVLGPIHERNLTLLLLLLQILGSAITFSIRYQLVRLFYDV", "experiment": "Inhibition of DPAGT1 in human PD002 cells assessed as reduction in snail protein expression incubated for 24 hrs by Western blot analysis", "type": "cell-based"}, "[4]": {"experiment": "Synergistic cytotoxicity in human PD002 cells assessed as FIC at 2 uM incubated for 72 hrs in presence of 0.020 uM paclitaxel by IncuCyte live cell analysis imaging system based assay", "type": "functional"}, "[5]": {"tested_on": "PD002", "experiment": "Inhibition of DPAGT1 mRNA expression in human PD002 cells at 0 to 10 uM incubated for 24 hrs by RT-qPCR analysis", "type": "functional, cell-based", "conditions": "dose microM 0-10, time […]"}, "[6]": {"experiment": "Synergistic cytotoxicity in human PD002 cells assessed as FIC at 2 uM incubated for 72 hrs in presence of 0.039 uM paclitaxel by IncuCyte live cell analysis imaging system based assay", "type": "functional"}, "[7]": {"tested_on": "KB", "experiment": "Cytotoxicity in human KB cells assessed as reduction in cell viability incubated for 72 hrs by MTT assay", "type": "functional, cell-based"}, "[8]": {"tested_on": "PANC-1", "experiment": "Cytotoxicity in human PANC-1 cells assessed as reduction in cell viability incubated for 72 hrs by MTT assay", "type": "functional, cell-based", "conditions": "PANC-1, 72 h"}, "[9]": {"experiment": "Inhibition of Escherichia coli WecA incubated for 2 hrs using UDP-Glucosamine-C6-FITC substrate by reversed-phase HPLC analysis", "set-up": "species or system Escherichia coli BL21"}, "[10]": {"experiment": "Inhibition of N-terminal His9-tagged Methanocaldococcus jannaschii DSM 2661 AglH incubated for 2 hrs using UDP-GlcN-Cg-FITC and alpha-dihydroundecap-renyl phosphate by reversed-phase HPLC analysis"}}, "note": "Activity calls are given as the source filed them. The calls are words filed in the database; no cut-off is given here."}
{"compound": "CO[C@H]1[C@@H](O)[C@H](n2ccc(=O)[nH]c2=O)O[C@@H]1[C@@H](O[C@H]1OC(C(=O)NCc2ccc(N3CCC(Oc4ccc(OC(F)(F)F)cc4)CC3)cc2)=C[C@H](O)[C@@H]1O)C(N)=O", "values": [{"measurement": "IC50", "setting": "[1]", "value": 25, "unit": "µM"}, {"measurement": "FIC", "setting": "[2]", "value": 0.0096}, {"measurement": "inhibition", "setting": "[3]", "value": "Active"}, {"measurement": "FIC", "setting": "[4]", "value": 0.021}, {"measurement": "inhibition", "setting": "[5]", "value": "inactive"}, {"measurement": "FIC", "setting": "[6]", "value": 0.037}, {"measurement": "IC50", "setting": "[7]", "value": 35, "unit": "µM"}, {"measurement": "IC50", "setting": "[8]", "value": 35, "unit": "µM"}, {"measurement": "IC50", "setting": "[9]", "value": 0.1, "unit": "µM"}, {"measurement": "IC50", "setting": "[10]", "value": 0.15, "unit": "µM"}]}
